# Results from patent US6087121A, “Chemiluminescent detection of heme proteins in biological samples” (Mayo Foundation for Medical Education and Research, priority 1999, dated 2000).
# T1: Myeloperoxidase (Homo sapiens, UniProt P05164)
# T1 sequence (P05164 49-745): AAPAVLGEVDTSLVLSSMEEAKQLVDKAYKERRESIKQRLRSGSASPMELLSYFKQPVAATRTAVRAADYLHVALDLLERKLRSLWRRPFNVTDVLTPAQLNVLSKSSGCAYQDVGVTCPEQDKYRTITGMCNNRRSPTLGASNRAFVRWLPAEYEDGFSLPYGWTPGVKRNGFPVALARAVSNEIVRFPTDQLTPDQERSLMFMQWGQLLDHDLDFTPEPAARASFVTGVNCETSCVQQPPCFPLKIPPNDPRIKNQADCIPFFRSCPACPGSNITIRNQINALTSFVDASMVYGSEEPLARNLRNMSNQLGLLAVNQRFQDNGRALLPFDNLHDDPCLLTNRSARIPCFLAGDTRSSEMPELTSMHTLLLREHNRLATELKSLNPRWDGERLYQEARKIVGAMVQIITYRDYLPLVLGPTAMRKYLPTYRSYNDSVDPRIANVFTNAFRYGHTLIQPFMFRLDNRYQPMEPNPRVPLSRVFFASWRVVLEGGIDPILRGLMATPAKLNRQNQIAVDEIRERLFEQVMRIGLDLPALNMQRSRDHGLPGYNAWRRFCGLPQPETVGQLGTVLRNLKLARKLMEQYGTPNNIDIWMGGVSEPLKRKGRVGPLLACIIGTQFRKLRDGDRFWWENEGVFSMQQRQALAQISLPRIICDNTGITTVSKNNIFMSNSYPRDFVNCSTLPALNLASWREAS
# T2: Eosinophil Peroxidase (Homo sapiens, UniProt P11678)
# T2 sequence (P11678 140-715): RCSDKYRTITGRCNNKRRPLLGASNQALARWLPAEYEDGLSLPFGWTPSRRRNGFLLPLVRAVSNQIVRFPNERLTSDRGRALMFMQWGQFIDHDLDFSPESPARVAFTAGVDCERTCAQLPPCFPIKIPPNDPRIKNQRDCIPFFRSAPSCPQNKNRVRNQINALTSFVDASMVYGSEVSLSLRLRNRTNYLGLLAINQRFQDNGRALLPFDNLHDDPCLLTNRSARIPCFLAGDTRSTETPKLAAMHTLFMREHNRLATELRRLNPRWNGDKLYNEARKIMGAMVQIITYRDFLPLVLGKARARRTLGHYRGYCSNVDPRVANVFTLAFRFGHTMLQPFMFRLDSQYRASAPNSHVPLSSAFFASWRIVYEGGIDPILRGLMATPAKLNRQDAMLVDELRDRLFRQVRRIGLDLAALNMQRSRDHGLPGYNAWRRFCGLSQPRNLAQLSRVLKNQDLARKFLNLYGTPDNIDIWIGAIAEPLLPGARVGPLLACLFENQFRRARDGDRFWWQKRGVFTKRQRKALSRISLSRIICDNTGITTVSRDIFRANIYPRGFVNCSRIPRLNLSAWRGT
# T3: Thyroid peroxidase (Homo sapiens, UniProt P07202)
# T3 sequence (P07202 19-933): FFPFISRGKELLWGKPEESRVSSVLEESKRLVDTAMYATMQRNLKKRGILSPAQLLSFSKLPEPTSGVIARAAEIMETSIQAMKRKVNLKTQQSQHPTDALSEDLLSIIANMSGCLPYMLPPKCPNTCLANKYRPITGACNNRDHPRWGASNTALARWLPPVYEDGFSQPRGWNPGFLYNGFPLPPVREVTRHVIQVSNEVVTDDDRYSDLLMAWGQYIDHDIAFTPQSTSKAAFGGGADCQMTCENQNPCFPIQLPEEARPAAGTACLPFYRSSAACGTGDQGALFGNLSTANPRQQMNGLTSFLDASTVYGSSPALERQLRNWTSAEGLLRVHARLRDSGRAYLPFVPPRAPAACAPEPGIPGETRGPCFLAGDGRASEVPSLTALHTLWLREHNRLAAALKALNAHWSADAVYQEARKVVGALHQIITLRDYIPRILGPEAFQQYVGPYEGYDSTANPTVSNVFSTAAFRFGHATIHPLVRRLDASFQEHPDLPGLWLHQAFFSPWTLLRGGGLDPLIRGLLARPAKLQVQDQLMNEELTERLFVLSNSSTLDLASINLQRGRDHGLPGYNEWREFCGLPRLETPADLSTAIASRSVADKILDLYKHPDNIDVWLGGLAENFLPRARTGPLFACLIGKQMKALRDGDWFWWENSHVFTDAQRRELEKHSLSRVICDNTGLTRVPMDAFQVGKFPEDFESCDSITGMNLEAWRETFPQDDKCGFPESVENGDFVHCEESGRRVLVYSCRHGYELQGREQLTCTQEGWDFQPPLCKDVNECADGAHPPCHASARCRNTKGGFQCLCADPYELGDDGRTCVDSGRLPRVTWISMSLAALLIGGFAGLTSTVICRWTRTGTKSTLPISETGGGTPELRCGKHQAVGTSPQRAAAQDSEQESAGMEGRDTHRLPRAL
# T4: Myoglobin (Homo sapiens, UniProt P02144)
# T4 sequence (P02144 1-154): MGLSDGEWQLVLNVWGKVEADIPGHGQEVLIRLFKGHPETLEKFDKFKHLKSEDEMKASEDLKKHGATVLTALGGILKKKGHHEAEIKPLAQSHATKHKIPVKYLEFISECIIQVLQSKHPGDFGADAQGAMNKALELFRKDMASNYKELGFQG
# T5: MPO (Homo sapiens, UniProt P05164)
# T5 sequence (P05164 49-745): T1 sequence (P05164 49-745)
# B1: Myoglobin: Human heart myoglobin obtained from Calbiochem (protein, UniProt P02144 2-154, looked up)
# Myoglobin: GLSDGEWQLVLNVWGKVEADIPGHGQEVLIRLFKGHPETLEKFDKFKHLKSEDEMKASEDLKKHGATVLTALGGILKKKGHHEAEIKPLAQSHATKHKIPVKYLEFISECIIQVLQSKHPGDFGADAQGAMNKALELFRKDMASNYKELGFQG
# How the values were obtained:
# Myeloperoxidase = target: T1, Myeloperoxidase; assay: Inhibition of peroxidase activities with PS-1 by methimazole: Myeloperoxidase; format: biochemical; conditions: 50 μmol/L methimazole, enzyme 1 μg/mL
# Description: (§1) Urine samples were diluted 1:4 into distilled water to minimize inhibitory effects observed with hyperosmolal urines. Two μL of diluted urine were added to 12×75 mm polystyrene test tube containing 50 μL of the PS-1 solution. The tubes were incubated at 37° C. for 5 minutes. MPO activity was determined by chemiluminescence emission using a Turner TD-20e luminometer maintained at 37° C. Leukocyte counting was performed manually by using a hemacytometer chamber (Kova Glasstic slide, Hycor, Irvine, Calif.) on each urine sample to determine the number of cells/mL.
# (§2) The reactivity of PS-1 with heme proteins was assessed to determine if this substrate had more restricted specificity. Materials and methods were according to the description above.
# (§3) Several peroxidases were detected with PS-1 substrate including EPO, MPO, LPO, and TPO. Addition of 50 μmol/L methimazole, an inhibitor of EPO, reduces activities of EPO, TPO and LPO by >90%, while MPO was inhibited by less than about 50% (Table 6). The addition of methimazole to the PS-1 assay allows MPO activity to be detected selectively.
# Eosinophil Peroxidase = target: T2, Eosinophil Peroxidase; assay: Inhibition of peroxidase activities with PS-1 by methimazole: Eosinophil Peroxidase; format: biochemical; conditions: 50 μmol/L methimazole, enzyme 1 μg/mL
# Description: as §1, §2, §3
# Hemoglobin = Hemoglobin (Homo sapiens, UniProt P68871+P69905); assay: Inhibition of peroxidase activities with PS-1 by methimazole: Hemoglobin; format: biochemical; conditions: 50 μmol/L methimazole, protein 1 μg/mL
# Hemoglobin, sequence (P69905 whole entry): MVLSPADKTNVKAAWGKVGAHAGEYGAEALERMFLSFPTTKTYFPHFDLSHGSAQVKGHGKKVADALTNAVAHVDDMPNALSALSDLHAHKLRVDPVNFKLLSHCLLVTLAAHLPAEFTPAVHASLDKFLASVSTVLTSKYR
# Hemoglobin, sequence (P68871 whole entry): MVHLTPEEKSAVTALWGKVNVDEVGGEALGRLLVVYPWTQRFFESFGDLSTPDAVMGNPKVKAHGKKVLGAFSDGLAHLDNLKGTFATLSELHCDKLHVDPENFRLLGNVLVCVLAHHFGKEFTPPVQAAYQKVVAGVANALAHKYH
# Description: (§4) Centricon ultrafiltration filters were obtained from Amicon (Daven, Mass.). Polystyrene tubes (5.0 mL volume, 75×12 mm) used for the assay were manufactured by Sarstedt (Arlington Heights, Ill.). The chemiluminescent substrate, 7-dimethylamino-naphthalene-1,2-dicarbonic acid-hydrazide (7-DNH) was purchased from Boehringer Mannheim (Indianapolis, Ind.). PS-1 acridan substrate (solution A and solution B) was obtained from Lumigen Inc. (Southfield, Mich.). Dimethyl sulfoxide, cetyltrimethyl-ammonium chloride (CTAC) as a 25% liquid and glycerol were obtained from Aldrich Chemical Company Inc. (Milwaukee, Wis.). Tween-20 and Sodium Chloride were purchased from Fisher Scientific (Fair Lawn, N.J.). […]
# (§5) Urine samples were diluted 1:4 into distilled water to minimize inhibitory effects observed with hyperosmolal urines. […] MPO activity was determined by chemiluminescence emission using a Turner TD-20e luminometer maintained at 37° C. […]
# (§6) The reactivity of PS-1 with heme proteins was assessed to determine if this substrate had more restricted specificity. […]
# Lactoperoxidase = Lactoperoxidase (Bos taurus, UniProt P80025); assay: Inhibition of peroxidase activities with PS-1 by methimazole: Lactoperoxidase; format: biochemical; conditions: 50 μmol/L methimazole, enzyme 1 μg/mL
# Description: as §1, §2, §3
# Thyroid peroxidase = target: T3, Thyroid peroxidase; assay: Inhibition of peroxidase activities with PS-1 by methimazole: Thyroid peroxidase; format: biochemical; conditions: 50 μmol/L methimazole, enzyme 1 μg/mL
# Description: as §1, §2, §3
# Myoglobin = target: T4, Myoglobin; assay: Inhibition of peroxidase activities with PS-1 by methimazole: Myoglobin; format: biochemical; conditions: 50 μmol/L methimazole, protein 1 μg/mL
# Description: as §4, §5, §6
# Hb = assay: Interference studies in Hb assay (7-DNH chemiluminescence); format: biochemical, human; conditions: level producing a signal equivalent to 3 RBC per high power field, fixed Hb concentration
# Description: Numerous potential interfering substances, which either enhance or quench the signal generated by cyclic hydrazides, were evaluated. The effects of these potentially interfering substances on light emission was investigated at varying concentrations of the interfering composition. Assays were performed using serial dilutions of the potential interfering compositions in ultrafiltered urine at a fixed concentration of Hb. Comparisons of chemiluminescence emission were made between a reference solution (Hb in ultrafiltered urine) without added interfering compositions and solutions with added interferant.
# Generally, the value of 3 RBC per high power field is the normal cutoff point.
# Bilirubin and uric acid were examined as a possible negative interfering compositions because of their chemical structure which may quench energy emitted.
# [1] = Activity of hemoglobin and myoglobin (oxidation states of iron, standard curves) with 7-DNH; format: biochemical
# Description: The effect of the oxidation state of the heme iron on chemiluminescence emission was evaluated. Equal concentrations of hemoglobin and myoglobin were used. Standard solutions of Hb and Mb at varying concentrations were assayed to evaluate their behavior in the reaction.
# With the addition of dithionite to the lysing agent, all of the iron in hemoglobin is immediately converted to the ferrous oxidation which subsequently reacts with H2 O2 and the substrate to form product. OxyHb and oxyMb […] were made by reducing methemoglobin/metmyoglobin with sodium dithionite and then oxygenating each protein by subsequent passage through a Sephadex column. The oxidation of oxyHb/oxyMb to the ferry (Fe^+4) oxidation state was achieved by adding an excess of H2 O2 to the protein solutions.
# MPO = target: T5, MPO; assay: Effects of potential interfering substances in WBC (MPO, PS-1) assay; format: biochemical
# Description: as §1
# Several possible interfering substances were added to urine and tested for inhibitory effects. Several common medications were also tested for potential inhibitory effects. […] Hb at concentrations of >10 μg/mL and Mb at concentrations >2 μg/mL were detected by the PS-1 substrate as the chemiluminescence emission was above the normal urine background. Samples grossly populated with bacteria caused slight inhibition of the MPO activity. Urine samples may contain many epithelial cells, casts, crystals, and numerous artifacts but none of these appear to interfere with the chemiluminescence emission from MPO.
Molecule,Chemiluminescence with methimazole (Myeloperoxidase),inhibition at 50 µM (Myeloperoxidase),Chemiluminescence with methimazole (Eosinophil Peroxidase),inhibition at 50 µM (Eosinophil Peroxidase),Chemiluminescence with methimazole (Hemoglobin),inhibition at 50 µM (Hemoglobin),Chemiluminescence with methimazole (Lactoperoxidase),inhibition at 50 µM (Lactoperoxidase),Chemiluminescence with methimazole (Thyroid peroxidase),inhibition at 50 µM (Thyroid peroxidase),Chemiluminescence with methimazole (Myoglobin),inhibition at 50 µM (Myoglobin),Level of Interference (Hb),Level of Interference (Hb; listed as Mb),Level of Interference (Hb; listed as myoglobin),"reactivity of Mb relative to Hb (fold less reactive) ([1]; alternative source of Mb, 7-DNH)","activity compared to Hb ([1]; up to 4 μg/mL, FIG. 7)",interference with PS-1 assay (MPO; Mb <2 μg/mL),"Interference (MPO; level giving signal equal to 5 WBC/high power field, highest tested: hemoglobin 250, myoglobin 200 μg/mL)"
"Cn1cc[nH]c1=S [Methimazole, methimazole]",130 TLU,58%,74 TLU,> 90%,0.8 TLU,9%,0.9 TLU,> 90%,0.1 TLU,> 90%,1.9 TLU,39%,–,–,–,–,–,–,–
B1,–,–,–,–,–,–,–,–,–,–,–,–,> 3.8 µg/mL,above 4 μg/mL,approximately 4 μg/mL,about 30 -fold,very little activity,did not interfere,> 2 µg/mL
